Results taken from patent US9345682B2, “Inhibition of STAT3 signal transduction for human cancer therapy” (University of South Florida, priority 1999, dated 2016).
Values belong to the compound of their own block, whether it stands above or below them.

Assays:
p38, JNK1/2, ERK1/2 = experiment: Western blot of phosphorylated (activated) MAPKs in Src-transformed fibroblasts; assay type: cell-based, mouse
Experimental: (§1) Whole-cell lysates are prepared in boiling sodium dodecyl sulfate (SDS) sample-loading buffer in order to extract total proteins from the cytoplasm and nucleus as well as preserve the in vivo phosphorylation […]. Equivalent amounts of total cellular protein are electrophoresed on an SDS-10% polyacrylamide gel and transferred to nitrocellulose membranes. Probing of nitrocellulose membranes with primary antibodies and detection of horseradish peroxidase-conjugated secondary antibodies by enhanced chemiluminescence (Amersham) are performed as previously described (Garcia, et al., 1997, Cell Growth Differ. 8:1267-1276, Turkson, et al., 1998, Mol. Cell. Biol. 18:2545-2552, Yu, et al., 1995, Science 269:81-83). Probes used are rabbit polyclonal antibodies against […] amino acid residues (626-640) of STAT3 (Santa Cruz Biotechnology), phosphoserine-727 of STAT3 (25), active (phospho-) JNK, p38^mapk or ERKs (New England Biolabs), or total JNK, p38^mapk or ERKs (Santa Cruz Biotechnology).

[1] = tested on: NIH 3T3/v-Src fibroblasts; experiment: Soft-agar colony formation of NIH 3T3/v-Src fibroblasts; assay type: cell-based, mouse; details: treated once weekly
Experimental: (§2) Colony formation assays are carried out in 6-well dishes. Each well contains 1.5 ml of 1% agarose in DMEM as the bottom layer. The top layer in each well consists of 1.5 ml of 0.5% agarose in DMEM containing 4,000 or 6,000 of NIH 3T3/v-Src or NIH 3T3/v-Ras fibroblasts, respectively. Treatment with inhibitors is initiated one day after seeding cells by adding 75-100 μl of medium with or without inhibitors and repeated once a week until formation of large colonies is evident. For quantitation, colonies are stained by adding 20 μl of 1 mg/ml iodonitrotetrazoliurn violet to each well and incubating at 37° C. overnight. Stained colonies are counted the next day.

STAT3 [2] = experiment: EMSA (M67SIE probe) of STAT3 DNA-binding activity in NIH 3T3 cells expressing v-Src; assay type: cell-based, mouse; details: v-Src-expressing NIH 3T3 cells, 6 hours
Experimental: (§3) In the case of stable NIH 3T3/v-Src/TKS3 clones, cells are treated with inhibitors or DMSO for 6 hours prior to preparing cytosolic extracts. For transient expression assays, cytosolic extracts are prepared from cells at 48 hours posttransfection as previously described (Turkson, et al., 1998, Mol. Cell. Biol. 18:2545-2552). Briefly, after two washes with PBS and equilibration for 5 min with 0.5 ml of PBS-0.5 mM EDTA, cells are scraped off the dishes and the cell pellet is obtained by centrifugation (4,500×g, 2 min, 4° C.). Cells are resuspended in 0.4 ml of low-salt HEPES buffer (10 mM HEPES [pH 7.8], 10 mM KCl, 0.1 mM EGTA, 0.1 mM EDTA, 1 mM phenylmethylsulfonyl fluoride, and 1 mM dithiothreitol) for 15 min, lysed by the addition of 20 μl of 10% Nonidet P-40 (NP-40), and centrifuged (10,000×g, 30 s, 4° C.) to obtain the cytosolic supernatant, which is used for luciferase assays (Promega) measured with a luminometer and for β-Gal activity detection by colorimetric assay at A570. As an internal control for transient transfection efficiency, results are normalized to β-Gal activity. […]

[3] = tested on: NIH 3T3/v-Ras fibroblasts; experiment: Soft-agar colony formation of NIH 3T3/v-Ras fibroblasts; assay type: cell-based, mouse; details: treated once weekly
Experimental: as §2

STAT3 [4] = experiment: Western blot of STAT3 serine 727 phosphorylation in Src-transformed NIH 3T3 fibroblasts; assay type: cell-based, mouse; details: 6 hours
Experimental: as §1

STAT3 [5] = experiment: STAT3-specific luciferase reporter (pLucTKS3) induced by v-Src in NIH 3T3 fibroblasts; assay type: cell-based, mouse; details: for constitutive induction of the STAT3-dependent luciferase reporter: NIH 3T3/v-Src/TKS3 cells stably expressing reporter, 6 hours; for STAT3-specific luciferase reporter induction by v-Src: transiently transfected NIH 3T3 cells, inhibitor for 6 h
Experimental: NIH 3T3, NIH 3T3/v-Src and NIH 3T3/v-Ras fibroblasts are grown in Dulbecco's modified Eagle's medium (DMEM) containing 5% iron-supplemented bovine calf serum (BCS). Transient transfections are carried out by the standard calcium phosphate method as previously described (Turkson, et al., 1998, Mol. Cell. Biol. 18:2545-2552). NIH 3T3 fibroblasts are seeded at 5×10^5 cells/100-mm plate in DMEM plus 5% BCS at 18 to 24 hours prior to transfection. Total DNA for transfections is typically 20 μg per plate, including 4 μg of luciferase reporter construct (pLucTKS3), 0.2 μg of β-galactosidase (β-Gal) internal control vector, and the amounts of expression vector indicated in figure legends. Transfection is terminated 15 hours later by aspirating the medium, washing the cells with phosphate-buffered saline (PBS), and adding fresh DMEM. For generation of NIH 3T3/v-Src/TKS3 cell lines stably expressing the STAT3 reporter, NIH 3T3/v-Src cells are transfected using Fugene 6 (Boehringer Mannheim) according to the supplier's protocol. The transfection mixture contains 5.5 μg total DNA per 10 cm plate, including […] of the STAT3 reporter, pLucTKS3, and 0.5 μg of pcDNA3 that carries the neomycin resistance gene. Individual G418-resistant clones are picked and characterized with regard to STAT3-dependent luciferase activities.
as §3, with “activity. For EMSA, nuclear extracts are prepared from transiently-transfected NIH 3T3 cells and volumes containing equal amounts of total protein are incubated with ^32P-labeled M67SIE oligonucleotide probe, as previously reported (Garcia, et al., 1997, Cell Growth Differ. 8:1267-1276, Yu, et al., 1995, Science 269:81-83).” for “activity.”

STAT3 [6] = experiment: EMSA of constitutive STAT3 DNA-binding activity in MDA-MB-468 breast carcinoma cells; assay type: cell-based, human; details: MDA-MB-468 cells; dose-dependent
Experimental: (§4) FIG. 6: Src and JAK Inhibitors Block Growth and STAT3 Activation in Breast Carcinoma Cells. MDA-MD-468 cells are treated with inhibitors of EGF receptor (PD158780), Src (PD180970), or JAKs (AG490), and effects on cell growth (Panel A) and STAT3 DNA-binding activity (Panel B) are determined.
STAT DNA-binding activity in human breast cancer cell lines is examined by electrophoretic mobility shift assays (EMSA) (Garcia et al., 1997, Cell Growth Diff. 8:1267-1276). In these experiments, EMSAs are performed using the ^32P-labeled sis-inducible element (SIE) as a probe to detect STAT DNA-binding activity in nuclear extracts of cells. This synthetic DNA oligonucleotide probe is a high-affinity mutant of the c-fos SIE, called hSIE, that binds both STAT1 and STAT3 (Yu, et al., 1995, Science 269:81-83). […] This activation is constitutive and occurs in the absence of exogenous EGF stimulation. By contrast, STAT3 activation is not detected in any of the three cell lines derived from normal breast tissue.
(§5) The involvement of these, and other, tyrosine kinases in STAT3 activation is tested using specific inhibitors of JAK family kinases, and the EGF receptor and Src family kinases.

MDA-MB-468 cells = experiment: Cell growth of MDA-MB-468 breast carcinoma cells; assay type: cell-based, human
Experimental: as §4, §5

SH2 Domain of STAT3 = target: T1, SH2 Domain of STAT3 (Homo sapiens, UniProt P40763); experiment: Phage display panning, 7-mer peptide library, on the SH2 domain of STAT3; assay type: binding
T1 construct: the SH2 domain of STAT3 is isolated as a target for screening 7-mer peptide phage display libraries; GST; made in house; host or cells: bacteria (E. coli)
T1 sequence (P40763 580-670 limits assumed): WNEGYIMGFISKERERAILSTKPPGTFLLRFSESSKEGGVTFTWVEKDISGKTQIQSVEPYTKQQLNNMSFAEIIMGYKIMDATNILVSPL
Description: Phage display peptide libraries are used because of two powerful features. First, phage libraries generate an enormous diversity of peptides that can be subjected to affinity selection by panning. […] These combinatorial libraries are based on random short peptide sequences fused to a coat protein of bacteriophage, herein pIII of the filamentous coliphage MI3. Panning of the peptide library using an immobilized target, herein STAT3 fusion proteins bound onto beads, is used to select for peptide sequences that bind to STAT3. […] Peptide sequences that occur at elevated frequencies are good candidates for ST4T3-specific binding peptides. […] These cyclic peptides have the advantage of reducing entropic freedom, thereby potentially increasing binding specificity and affinity relative to linear peptides. Another variation on this approach is to combine “affinity maturation” with the phage display peptide library [Scott & Smith, 1990, Science, 249:386-390].
For panning phage with the STAT3 fusion protein, 50 ul of glutathione-Sepharose beads bound to purified GST-Stat3 fusion protein are washed with phosphate buffered saline (PBS). The beads are then incubated with 10 ul of phage suspension (1.4×10^11 virions) in 200 ul final volume of PBS for 30 min at room temperature with occasional mixing. The beads are gently pelleted in a microcentrifuge, and washed 10 times with 1 ml of PBS to remove unbound phage. Background of non-specifically bound phage is reduced by a variety of methods, including pre-blocking the beads with bovine serum albumin, pre-clearing the phage library with GST-glutathione-Sepharose beads, and washing the beads with increasing salt concentrations. Bound phage virions are eluted from the beads by incubation with a molar excess of glutathione for 30 min at room temperature. A small aliquot of the phage eluate is titered and the rest is amplified on the E. coli ER2537 host strain. Following amplification, the phage are purified by polyethylene glycol (PEG) precipitation and then the titer is determined again. […]

constitutive induction of the STAT3-dependent luciferase reporter (STAT3 [5]): partially | STAT3-specific luciferase reporter induction by v-Src (STAT3 [5]): significantly suppresses
Compound: COc1cccc(-c2cc(=O)c3ccccc3o2)c1N [PD98059]
basal ERKs activity (p38, JNK1/2, ERK1/2; Src-transformed fibroblasts): complete block | colony formation of Src-transformed cells in soft agar [1]: lack of significant effect | STAT3 DNA-binding activity induced by v-Src (STAT3 [2]): no effect | colony formation of Ras-transformed fibroblasts in soft agar [3]: lack of significant effect | STAT3 serine phosphorylation (phosphoserine-727) (STAT3 [4]): blocks

Compound: CNc1cc2c(Nc3cccc(Br)c3)ncnc2cn1 [PD158780]
constitutive STAT3 activation (STAT3 DNA-binding activity) (STAT3 [6]): does not block | cell growth (MDA-MB-468 cells): not by the EGF receptor inhibitor

Compound: Cc1cc(Nc2ncc3cc(-c4c(Cl)cccc4Cl)c(=O)n(C)c3n2)ccc1F [PD180970]
constitutive STAT3 activation (STAT3 DNA-binding activity) (STAT3 [6]): effectively blocked | cell growth (MDA-MB-468 cells): inhibition of cell growth

constitutive induction of the STAT3-dependent luciferase reporter (STAT3 [5]): completely | STAT3-specific luciferase reporter induction by v-Src (STAT3 [5]): significant inhibition
Compound: Oc1ccc(-c2nc(-c3ccncc3)c(-c3ccc(F)cc3)[nH]2)cc1 [SB202190]
phosphorylation of MAPK members, including p38 (p38, JNK1/2, ERK1/2; Src-transformed cells): does not significantly alter | colony formation of Src-transformed cells in soft agar [1]: completely blocks | STAT3 DNA-binding activity induced by v-Src (STAT3 [2]): no effect | colony formation of Ras-transformed fibroblasts in soft agar [3]: no significant effects | STAT3 serine phosphorylation (phosphoserine-727) (STAT3 [4]): blocks

Compound: ASTLPKA (listed as Homo sapiens)
Frequency (out of 100 clones) (SH2 Domain of STAT3): 7%

Compound: HAIYPRN (listed as Homo sapiens)
Frequency (out of 100 clones) (SH2 Domain of STAT3): 16%

Compound: IQSPHFF (listed as Homo sapiens)
Frequency (out of 100 clones) (SH2 Domain of STAT3): 6%
